Common to all, as to type: in vivo, human
Experiment [1] has as its system patients with a macular degeneration. Put plainly: Clinical observation, age-related or myopia-related macular degeneration. To be noted: eleven patients; eye drops or tablets. On the procedure:
The invention will be even further illustrated by the description of the clinical examples which follow and which, of course, are not limiting in nature. In these examples, the active ingredient, the N-acetyl-DL-leucine, was administered continuously (i.e., at least once a day) in oral or topical form, in an amount of 2 gr per day in the case of the oral form and 2% in the case of eye drops. Eleven patients with a macular degeneration which were treated with N-acetyl-DL-leucine (eye drops or tablets) noticed an improvement of their visual acuity.

In a further experiment the test system is astigmatic subjects. Put plainly: Clinical observation, astigmatism. The settings on record: eye drops. Here is the method: (§1) The invention will be even further illustrated by the description of the clinical examples which follow and which, of course, are not limiting in nature. In these examples, the active ingredient, the N-acetyl-DL-leucine, was administered continuously (i.e., at least once a day) in oral or topical form, in an amount of 2 gr per day in the case of the oral form and 2% in the case of eye drops. More particularly, but not exclusively, it relates to eyedrops composed of N-acetyl-DL-leucine, which are intended for improving (i.e., in the present case, decreasing) the effects of presbyopia, myopia, hypermetropia and astigmatism, for stabilizing them or even for reversing the evolutive course thereof. • Myopia: seven patients were evaluated and received the N-acetyl-DL-leucine in the form of eye drops. • Result: in addition to the improvement of their visual acuity, the visual field, the refractive value was reduced. One can deduce therefrom that the N-acetyl-DL-leucine not only improves vision but also treats myopia. • Presbyopia: fourteen patients received the N-acetyl-DL-leucine in the form of eye drops and experienced an improvement of their near vision and a decrease in presbyopia. […]

Experiment [2] deals with patients with Retinitis Pigmentosa. In words: Clinical observation, retinitis pigmentosa patients. The settings on record: seven patients: three 1 gr 2 times per day oral, four 2% eye drops 3 times per day. On the procedure:
The invention will be even further illustrated by the description of the clinical examples which follow and which, of course, are not limiting in nature. In these examples, the active ingredient, the N-acetyl-DL-leucine, was administered continuously (i.e., at least once a day) in oral or topical form, in an amount of 2 gr per day in the case of the oral form and 2% in the case of eye drops. This disorder corresponds to a dystrophy in the photoreceptors (cones and rods). It is characterized by the appearance of night blindness in infancy or adolescence, progressive contractions of the equatorial annular peripheral visual filed and results in a substantial loss in visual acuity or even blindness by adulthood. The N-acetyl-DL-leucine was used and induced an improvement of visual function: Seven patients were treated: three of them received 1 gr 2 times per day via oral administration; and four of them were subjected to a topical administration (2% eye drops), 3 times per day. All of them noticed an improvement of their visual acuity and visual field.

Experiment [3] relates to "normal" patients without ocular pathology (aging individuals). In words: Clinical observation, age-related physiological vision decline / normal patients. To be noted: in many cases; absence of any occular pathology. Here is the method:
The invention will be even further illustrated by the description of the clinical examples which follow and which, of course, are not limiting in nature. In these examples, the active ingredient, the N-acetyl-DL-leucine, was administered continuously (i.e., at least once a day) in oral or topical form, in an amount of 2 gr per day in the case of the oral form and 2% in the case of eye drops. […] In many cases, N-acetyl-DL-leucine improved visual function (visual acuity, contrast vision and visual field) in the absence of any occular pathology.

Experiment [4] concerns patients with visual difficulties at night (hemeralopia). In words: Clinical observation, night vision (hemeralopia). To be noted: all the patients with hemeralopia. Here is the method: (§2) The invention will be even further illustrated by the description of the clinical examples which follow and which, of course, are not limiting in nature. In these examples, the active ingredient, the N-acetyl-DL-leucine, was administered continuously (i.e., at least once a day) in oral or topical form, in an amount of 2 gr per day in the case of the oral form and 2% in the case of eye drops.

Experiment [5] relates to patients with known glaucoma. In words: Clinical observation, glaucomatous neuropathy or glaucoma. On the procedure: as §2, with “drops. Patients with known glaucoma experienced a decrease in their occular tension, and an improvement of their visual acuity and visual field in a very short time as soon as the treatment was administrated. […] IV) Ametropia.” for “drops.”
Experiment [6] relates to patients with Starpardt's Disease. In words: Clinical observation, Stargardt's disease twin patients. To be noted: eye drops; one of two twin patients. On the procedure:
The invention will be even further illustrated by the description of the clinical examples which follow and which, of course, are not limiting in nature. In these examples, the active ingredient, the N-acetyl-DL-leucine, was administered continuously (i.e., at least once a day) in oral or topical form, in an amount of 2 gr per day in the case of the oral form and 2% in the case of eye drops. Two twin patients treated with N-acetyl-DL-leucine in the form of eye drops noticed an improvement of their visual acuity by 1/10 for one of them, and by 2/10 to 3/10 for the […].

In another experiment the test system is patients with presbyopia. In words: Clinical observation, presbyopia. To be noted: fourteen patients; eye drops. On the procedure: as §1
In another experiment the test system is patients with myopia. Put plainly: Clinical observation, myopia. The settings on record: seven patients; eye drops. Here is the method:
as §1

Experiment [7] deals with patients with hypermetropia. Put plainly: Clinical observation, hypermetropia. The settings on record: eye drops. On the procedure:
as §1

The structures appear in SMILES notation.

In the case of `CC(=O)NC(CC(C)C)C(=O)O` (racemic) [N-acetyl-DL-leucine], the visual acuity entry in [1] is “improvement”; in the experiment on astigmatic subjects, “improvement”; in experiment [2] it was “improvement”; in [5] (oral route or topical route (eye drops)) it was “marked improvement”; in the experiment on patients with myopia it was “improvement”. The visual field entry in [2] was “improvement”; in [5] (oral route or eye drops), “regression of the deficiency”; in the experiment with patients with myopia, “improvement”. Moreover, the “visual function (visual acuity, contrast vision and visual field)” value in [3] was “improved”. The night vision entry in [4] is listed as “greatly improved”. Moreover, the occular tension result in experiment [5] (in a very short time as soon as the treatment was administrated) is listed as “decrease”. Also, the “improvement of visual acuity” value in experiment [6] is given as 1/10. In addition, the near vision result in the experiment with patients with presbyopia is “improvement”. Also, the presbyopia entry with patients with presbyopia is given as “decrease”. Further, in the experiment with patients with myopia, the refractive value result was “reduced”. Moreover, in experiment [7], the “observations in hypermetropia (near vision, ametropia)” value was “the same observations as for presbyopia”.

Values taken from patent publication US9155719B2, “N-acetyl-DL-leucine, neuroprotective and retinoprotective medicament” (priority 2010, dated 2015).
